System: hCAR-mediated CYP2B6 promoter
Experiment: CAR-mediated CYP2B6 promoter luciferase assay in HepG2 cells
Format: cell-based, human
Settings: pcDNA3-CAR-transfected HepG2 cells, 24 h; CITCO 500 nM
Experimental: HepG2 cells (American Tissue Culture Collection, Manassas, VA, USA) were maintained in Dulbecco’s modified Eagle’s essential medium (DMEM), containing 10% fetal bovine serum, 1% nonessential amino acids, 1% GlutaMAX®, and 1% antibiotics/antimycotics at 37 °C in a 5% CO2 atmosphere. The expression plasmid encoding the human constitutive androstane receptor (hCAR; pcDNA3-CAR) and the pGL3-CYP2B6 luciferase construct were kindly provided by Dr. Hongbing Wang (University of Maryland, College Park, MD, USA). The plasmid encoding the human pregnane X receptor (hPXR; pcDNA3-PXR) and the pGL3-CYP3A4 luciferase construct were obtained from Dr. Masahiko Negishi at the National Institutes of Health (Bethesda, MD, USA). Cells were seeded at a density of 1.5 × 10^5 cells/well into a 24-well plate. The next day, the cells were transfected with 0.25 μg of either pcDNA3-CAR or pcDNA3-PXR and 0.25 μg of a promoter luciferase plasmid (either pGL3-CYP2B6 or pGL3-CYP3A4) using Lipofectamine 2000 (Invitrogen, Carlsbad, CA, USA) according to the manufacturer’s instructions. […] The cells were harvested and luciferase activity was measured as described previously.

CYP2B6 luciferase activity increase: 1.5 fold
SMILES: Clc1ccc(-c2nc3sccn3c2C=NOCc2ccc(Cl)c(Cl)c2)cc1 [CITCO, reference compound]

Reference: PMC6100415, “Hepatic Metabolism of Sakuranetin and Its Modulating Effects on Cytochrome P450s and UDP-Glucuronosyltransferases” (Molecules : A Journal of Synthetic Chemistry and Natural …, 2018)
